Experimental findings from patent US20230210999A1, “TARGETED PROTEASE DEGRADATION (TED) PLATFORM” (EUBULUS BIOTHERAPEUTICS INC., priority 2020, published 2023) are described below.

Assay [1] has as its system U-87MG cells. The experiment in a line: Cell proliferation experiment, U-87MG. Format: cell-based. Conditions: Homo sapiens; U-87MG cells, 72 h; read-out: Inhibitory activity IC50 of tested compounds on U-87MG cells. The procedure, abridged: (§1)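 Viability read by Alamar blue. 72 h treatment, 5-fold dilution series, duplicates; log-phase cells in 96-well plates; IC50 by curve fit.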

Assay [2] relates to HUVEC cells. As to the kind of experiment: Cell proliferation experiment, HUVEC. Conditions: Homo sapiens, 72 h, read-out: Inhibitory activity IC50 of tested compounds on HUVEC cells. The format is cell-based. As to the method:
(§2) Reagents: RPMI-1640 medium, McCoy's 5A medium, IMDM medium, MEM medium, L-15 medium, fetal bovine serum. Penicillin-Streptomycin double antibody, trypsin, etc., 2-mercaptoethanol, NEAA, pyruvate, etc.
(§3) The cells were cultured in conventional ways, and the cells should be passed at least 2 generations before plating. Cells at the logarithmic growth phase were collected, prepared into single cell suspensions and counted. The concentration of cells was adjusted to the desired concentration, and cells were inoculated into a 96-well cell culture plate at 100 μl per well. 100 μL of complete medium of the test compound were added to each well, set up 2 duplicate wells for each concentration, and diluted with a 5-fold gradient, and continued to culture for 72 h. All cells were subjected to IC50 test for corresponding samples. The experimental results are shown in Test Example 4.
(§4) The fluorescence intensity of each well was detected using the Alarm blue method, and IC50 was calculated.
(§5) IC50 was calculated according to the following formula:
(§6) Y=Max+(Min−Max)/[1+(X/IC50)×Slope]
(§7) wherein Min, Max and Slope represent the minimum, maximum and slope respectively.

Assay [3] relates to MDA-MB-231 cells. The experiment in a line: Cell proliferation experiment, MDA-MB-231. The format is cell-based, human. The following applies: Homo sapiens, MDA-MB-231, 72 h, MDA-MB-231 cells, 72 h; read-out: Inhibitory activity IC50 of tested compounds on MDA-MB-231 cells. The procedure, abridged:
as §1

Assay [4] concerns MOL4-4 cells. As to the kind of experiment: Cell proliferation experiment, MOL4-4. Format: cell-based. The following applies: Homo sapiens, 72 h, read-out: Inhibitory activity IC50 of tested compounds on MOL4-4 cells. As to the method: as §2, §3, §4, §5, §6, §7
In assay [5] the test system is Daudi cells. The experiment in a line: Cell proliferation experiment, Daudi. Format: cell-based, human. The following applies: Homo sapiens, Daudi, 72 h, Daudi cells, 72 h; read-out: Inhibitory activity IC50 of tested compounds on Daudi cells. Put shortly:
as §1

Assay [6] has as its system THP-1 cells. The experiment in a line: Cell proliferation experiment, THP-1. The format is cell-based. Conditions: Homo sapiens, 72 h, read-out: Inhibitory activity IC50 of tested compounds on THP-1 cells. As to the method:
as §2, §3, §4, §5, §6, §7

For assay [7], the system named is Hela cells. The experiment in a line: Cell proliferation experiment, Hela. Format: cell-based. The following applies: Homo sapiens, 72 h, read-out: Inhibitory activity IC50 of tested compounds on Hela cells. As to the method: as §2, §3, §4, §5, §6, §7
For assay [8], the system named is NCIH82 cells. As to the kind of experiment: Cell proliferation experiment, NCI-H82. The format is cell-based, human. Conditions: Homo sapiens, NCI-H82, 72 h, NCIH82 cells, 72 h; read-out: Inhibitory activity IC50 of tested compounds on NCIH82 cells. The procedure, abridged:
as §1

Assay [9] concerns MV4;11 cells. The experiment in a line: Cell proliferation experiment (Alamar blue, 72 h), MV4;11. Format: cell-based, human. The following applies: Homo sapiens, MV4-11, 72 h, MV4;11 cells, 72 h; read-out: Inhibitory activity IC50 of tested compounds on MV4;11 cells. Put shortly: as §1
For orientation: Resazurin is reduced to fluorescent resorufin, in cell work by metabolically active cells.

Assay [10] has as its system HL-60 cells. As to the kind of experiment: Cell proliferation experiment, HL-60. Conditions: Homo sapiens, 72 h, read-out: Inhibitory activity IC50 of tested compounds on HL-60 cells. The format is cell-based. As to the method:
as §2, §3, §4, §5, §6, §7

Assay [11] has as its system HT-29 cells. As to the kind of experiment: Cell proliferation experiment, HT-29. The following applies: Homo sapiens; HT-29 cells, 72 h; read-out: Inhibitory activity IC50 of tested compounds on HT-29 cells. Format: cell-based. The procedure, abridged: as §1

Turning to `CC[C@@H]1C(=O)N(C)c2cnc(Nc3ccc(C(=O)NCCCOCCNCCC#Cc4cccc5c4CN(C4CCC(=O)NC4=O)C5=O)cc3OC)nc2N1C1CCCC1` (some centres unmarked) [Compound 888], the IC50 in [1] is 100 to 500 nM; in assay [2], not above 1000 nM; in [3], not above 500 nM; in assay [4], not above 100 nM; in [5], not above 100 nM; in assay [6], not above 1000 nM. Also, the half-maximal inhibitory concentration (IC50) in assay [7] was not above 1000 nM; in assay [8], not above 1000 nM; in [9], not above 100 nM; in [10], not above 1000 nM; in assay [11], 300 to 1000 nM.

On to `CC[C@@H]1C(=O)N(C)c2cnc(Nc3ccc(C(=O)NC4CCC(N5CCN(CCC#Cc6cccc7c6CN(C6CCC(=O)NC6=O)C7=O)CC5)CC4)cc3OC)nc2N1C1CCCC1` (some centres unmarked) [Compound 889], for which the IC50 was not above 100 nM in [1]; not above 1000 nM in assay [2]; not above 500 nM in assay [3]; not above 100 nM in [4]; not above 100 nM in assay [5]; not above 1000 nM in assay [6]. Moreover, the IC50 was not above 1000 nM in assay [7]; not above 1000 nM in [8]; not above 100 nM in [9]; not above 1000 nM in assay [10]; not above 300 nM in [11].

Regarding `CC[C@@H]1C(=O)N(C)c2cnc(Nc3ccc(C(=O)NC4CCN(CCOCCNCCC#Cc5cccc6c5CN(C5CCC(=O)NC5=O)C6=O)CC4)cc3OC)nc2N1C1CCCC1` (some centres unmarked) [Compound 874], the half-maximal inhibitory concentration (IC50) was 100 to 500 nM in [1]; 100 to 1000 nM in assay [5]; not above 1000 nM in assay [6]; not above 1000 nM in assay [8]; not above 100 nM in assay [9]; not above 1000 nM in assay [10]. Further, the IC50 in assay [11] is 300 to 1000 nM.

As for `CC[C@@H]1C(=O)N(C)c2cnc(Nc3ccc(C(=O)NCCCOCCCOCCNCCC#Cc4cccc5c4CN(C4CCC(=O)NC4=O)C5=O)cc3OC)nc2N1C1CCCC1` (some centres unmarked) [Compound 892], the IC50 in assay [1] is not above 100 nM; in [2], not above 1000 nM; in assay [3], not above 500 nM; in [5] it was 100 to 1000 nM; in [7], not above 1000 nM; in [8], not above 1000 nM. The IC50 in assay [9] is not above 100 nM; in assay [10], not above 1000 nM; in assay [11], 300 to 1000 nM.

In the case of `CC[C@@H]1C(=O)N(C)c2cnc(Nc3ccc(C(=O)NCCCOCCNCCOCCC#Cc4cccc5c4CN(C4CCC(=O)NC4=O)C5=O)cc3OC)nc2N1C1CCCC1` (some centres unmarked) [Compound 893], the 50% inhibitory concentration (IC50) in assay [1] was not above 100 nM; in assay [2] it was not above 1000 nM; in [3], not above 500 nM; in assay [5], not above 100 nM; in assay [7] it was not above 1000 nM; in assay [8], not above 1000 nM. Further, the IC50 is not above 100 nM in assay [9], not above 1000 nM in assay [10] and not above 300 nM in [11].

For the compound `CC[C@@H]1C(=O)N(C)c2cnc(Nc3ccc(C(=O)NCCCOCCOCCCN(C)CCC#Cc4cccc5c4CN(C4CCC(=O)NC4=O)C5=O)cc3OC)nc2N1C1CCCC1` (some centres unmarked) [Compound 883], the half-inhibitory concentration (IC50) in assay [1] is not above 100 nM; in assay [2], not above 1000 nM; in [3], not above 500 nM; in assay [4] it was not above 100 nM; in [5], not above 100 nM; in assay [6], not above 1000 nM. The IC50 is not above 1000 nM in [7]; not above 1000 nM in [8]; not above 100 nM in assay [9]; not above 1000 nM in assay [10]; 300 to 1000 nM in assay [11].

Regarding `CC[C@@H]1C(=O)N(C)c2cnc(Nc3ccc(C(=O)NCCCOCCOCCNCCC#Cc4cccc5c4CN(C4CCC(=O)NC4=O)C5=O)cc3OC)nc2N1C1CCCC1` (some centres unmarked) [Compound 890], the IC50 in assay [1] was 100 to 500 nM; in assay [2] it was not above 1000 nM; in assay [3], not above 500 nM; in [5], not above 100 nM; in [8] it was not above 1000 nM; in assay [9], not above 100 nM. The IC50 is not above 1000 nM in [10] and 300 to 1000 nM in assay [11].

For `CC[C@@H]1C(=O)N(C)c2cnc(Nc3ccc(C(=O)NCCCN(C)CCOCCCC#Cc4cccc5c4CN(C4CCC(=O)NC4=O)C5=O)cc3OC)nc2N1C1CCCC1` (some centres unmarked) [Compound 884], the half-inhibitory concentration (IC50) in assay [1] was not above 100 nM; in assay [2], not above 1000 nM; in [3], not above 500 nM; in assay [4] it was not above 100 nM; in [5], not above 100 nM; in [6], not above 1000 nM. For the same compound, the IC50 in [7] is not above 1000 nM; in assay [8], not above 1000 nM; in [9], not above 100 nM; in assay [10], not above 1000 nM; in assay [11] it was 300 to 1000 nM.

Broadly, the IC50 is the concentration needed to halve the response being measured.
